Data taken from patent US12708676B2, “Phosphate compounds for detecting neurological disorders” (Amydis, Inc., priority 2018, dated 2026).
Like-named read-outs stand apart in the source and are kept apart here.

Experiments:
Aβ = test: Example 4: detection of Aβ in the retina of a TBI (blast) mouse model; assay type: in vivo; conditions: after Compound 9 intravenously, example in present tense
Experimental: This example is conducted to determine whether Compound 9 detects Aβ in the retina of a TBI mouse model.
Blast model mice 24 hours after injury and a non-injured mouse are administered Compound 9 intravenously. Mice retinas are scanned by scanning laser ophthalmoscopy (SLO).
Alternatively, or in addition to retinal scanning, retinal tissues are removed and stained with an anti-Aβ antibody (6E10).

prion deposits = prion deposits (Mus musculus, UniProt P04925); assay type: in vivo; conditions: administered as Compound 10
prion deposits, sequence (P04925 23-230 limits assumed): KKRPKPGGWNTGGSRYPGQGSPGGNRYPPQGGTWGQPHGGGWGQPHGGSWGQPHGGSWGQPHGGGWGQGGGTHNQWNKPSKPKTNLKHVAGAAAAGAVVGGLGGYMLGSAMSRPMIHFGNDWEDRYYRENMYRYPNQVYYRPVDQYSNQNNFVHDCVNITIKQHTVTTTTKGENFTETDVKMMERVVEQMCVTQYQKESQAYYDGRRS

Aβ40 = Aβ40 (Homo sapiens, UniProt P05067, D694N/E693Q); test: Example 8: in vivo retinal imaging and ex vivo IHC of APPSwDI, PSAPP and wild type mice; parameters: species or system mouse; conditions: APPSwDI mouse

N#C/C(=C\c1ccc2cc(N3CCCCC3)ccc2c1)C(=O)NCCOCCOCCO [Compound 7, (E)-2-cyano-N-(2-(2-(2-hydroxyethoxy)ethoxy)ethyl)-3-(6-(piperidin-1-yl)naphthalen-2-yl)acrylamide]
Fluorescent labelling of retinal deposits (Aβ; mouse with blast injury): fluorescently labels retinal deposits that are visible upon fluorescent activation | Fluorescent enhancement in retinal tissue (Aβ; uninjured mouse): does not display any fluorescent enhancement | Labelling of retinal prion deposits in vivo (prion deposits; pre-symptomatic prion-inoculated mice): successfully labelled large objects around the optic disk and vasculature believed to be prion deposits | Labelling of retinal prion deposits in vivo (prion deposits; terminally diseased prion mice): successfully labelled large objects around the optic disk and vasculature believed to be prion deposits | Labelling in brain sections, ex vivo IHC (Aβ40; 15 minutes after iv Compound 10): amyloid deposits along a vessel labeled with Compound 7 and 6E10 | Structures labelled in retinal tissue (Aβ40; administered as Compound 10): labels both vessels and diffuse deposits in the retinal tissue | Co-localization with 6E10 in retina, ex vivo IHC (Aβ40; labelling from in vivo injection of Compound 10): co-localized with a sequence specific antibody for Aβ (6E10)
